# Assay results: ChEMBL document CHEMBL5465560, “Selectivity Literature for EUbOPEN Chemogenomic Library” (2024)
# What was measured:
# [1] = biological target: STE20-like serine/threonine-protein kinase (Homo sapiens, UniProt Q9H2G2); assay: Selectivity interaction (Competition-binding assay (DiscoverX)) EUB0000229b SLK
# [2] = biological target: Cyclin-dependent kinase 4 (Homo sapiens, UniProt P11802); assay: Selectivity interaction (KinomeScan (DiscoverX)) EUB0001079a CDK4; conditions: at 1 µM
# [3] = biological target: T1, G protein-coupled receptor kinase 3 (Homo sapiens) (UniProt P35626); assay: Selectivity interaction (KinomeScan (DiscoverX)) EUB0001079a ADRBK2; conditions: at 1 µM
# T1 sequence (whole entry): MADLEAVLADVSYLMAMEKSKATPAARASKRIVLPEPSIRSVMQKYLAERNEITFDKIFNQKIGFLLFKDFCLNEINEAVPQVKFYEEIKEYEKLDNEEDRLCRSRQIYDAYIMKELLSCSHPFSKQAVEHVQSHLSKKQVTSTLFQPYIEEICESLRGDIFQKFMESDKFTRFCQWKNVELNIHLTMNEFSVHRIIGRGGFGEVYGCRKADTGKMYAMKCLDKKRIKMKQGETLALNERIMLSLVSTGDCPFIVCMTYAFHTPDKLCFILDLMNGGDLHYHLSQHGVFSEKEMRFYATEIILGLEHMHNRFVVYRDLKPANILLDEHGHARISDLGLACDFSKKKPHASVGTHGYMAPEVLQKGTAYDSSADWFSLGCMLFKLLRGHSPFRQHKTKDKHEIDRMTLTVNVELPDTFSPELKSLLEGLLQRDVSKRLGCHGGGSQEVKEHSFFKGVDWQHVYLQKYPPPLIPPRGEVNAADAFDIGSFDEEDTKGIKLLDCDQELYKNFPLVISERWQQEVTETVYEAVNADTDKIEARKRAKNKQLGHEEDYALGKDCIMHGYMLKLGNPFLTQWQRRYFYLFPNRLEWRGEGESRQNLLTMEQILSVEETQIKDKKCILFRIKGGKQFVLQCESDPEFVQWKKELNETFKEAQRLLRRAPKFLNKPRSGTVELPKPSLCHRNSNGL
# [4] = biological target: Cyclin-dependent kinase 8 (Homo sapiens, UniProt P49336); assay: Selectivity interaction (ActivX KiNativ screen (kinase selectivity in THP-1 cell lysates)) EUB0000639a CDK8; format: subcellular; conditions: lysate
# [5] = biological target: T2, Serine/threonine-protein kinase Nek9 (Homo sapiens) (UniProt Q8TD19); assay: Selectivity interaction (ActivX KiNativ screen (kinase selectivity in THP-1 cell lysates)) EUB0000639a NEK9; format: subcellular; conditions: lysate
# T2 sequence (whole entry): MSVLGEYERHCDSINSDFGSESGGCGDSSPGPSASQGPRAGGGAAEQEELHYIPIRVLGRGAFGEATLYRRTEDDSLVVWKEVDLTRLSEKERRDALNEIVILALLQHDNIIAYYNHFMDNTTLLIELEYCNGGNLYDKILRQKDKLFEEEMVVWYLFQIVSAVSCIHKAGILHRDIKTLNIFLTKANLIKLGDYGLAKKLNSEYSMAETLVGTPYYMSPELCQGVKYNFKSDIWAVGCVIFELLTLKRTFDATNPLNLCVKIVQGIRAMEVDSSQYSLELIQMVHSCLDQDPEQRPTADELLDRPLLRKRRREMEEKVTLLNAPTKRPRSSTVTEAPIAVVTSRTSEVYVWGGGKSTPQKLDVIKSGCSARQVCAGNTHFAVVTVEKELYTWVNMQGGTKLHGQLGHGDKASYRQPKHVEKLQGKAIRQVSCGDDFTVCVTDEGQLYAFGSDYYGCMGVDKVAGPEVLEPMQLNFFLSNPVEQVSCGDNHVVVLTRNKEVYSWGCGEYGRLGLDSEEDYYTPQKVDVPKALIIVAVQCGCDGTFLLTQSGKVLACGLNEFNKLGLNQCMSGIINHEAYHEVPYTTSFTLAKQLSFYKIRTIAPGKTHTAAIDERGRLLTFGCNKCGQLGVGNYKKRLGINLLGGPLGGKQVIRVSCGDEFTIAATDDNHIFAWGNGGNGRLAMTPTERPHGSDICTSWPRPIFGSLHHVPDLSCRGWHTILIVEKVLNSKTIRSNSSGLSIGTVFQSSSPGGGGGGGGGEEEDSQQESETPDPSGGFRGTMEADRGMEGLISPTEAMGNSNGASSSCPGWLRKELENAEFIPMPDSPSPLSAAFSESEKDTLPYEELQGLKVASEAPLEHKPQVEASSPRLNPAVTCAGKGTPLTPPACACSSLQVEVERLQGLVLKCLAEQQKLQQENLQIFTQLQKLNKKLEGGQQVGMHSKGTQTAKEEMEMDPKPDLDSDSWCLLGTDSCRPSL
# [6] = biological target: Serine/threonine-protein kinase PAK 4 (Homo sapiens, UniProt O96013); assay: Selectivity interaction (KinomeScan (DiscoverX)) EUB0000595a PAK4; conditions: at 10 µM
# [7] = biological target: Tyrosine-protein kinase Fyn (Homo sapiens) (UniProt P06241); assay: Selectivity interaction (KinomeScan (DiscoverX)) EUB0000092b FYN; conditions: at 10 µM
# [8] = biological target: Mast/stem cell growth factor receptor Kit (Homo sapiens, UniProt P10721); assay: Selectivity interaction (KinomeScan (DiscoverX)) EUB0001619a KIT; conditions: at 1 µM
# [9] = biological target: RAC-beta serine/threonine-protein kinase (Homo sapiens) (UniProt P31751); assay: Selectivity interaction (ActivX KiNativ screen (ex vivo kinase selectivity in human PBMCs)) EUB0001619a AKT2; format: cell-based; conditions: PBMC, at 1 µM
# [10] = biological target: CDK7/Cyclin H/MNAT1 (Homo sapiens) (UniProt P51946+P50613+P51948); assay: Selectivity interaction (Adapta Assay) EUB0001632a CDK7; format: protein-complex assay; conditions: at 10 µM
# [11] = biological target: T3, Serine/threonine-protein kinase Sgk2 (Homo sapiens) (UniProt Q9HBY8); assay: Selectivity interaction (Kinase panel (Z-LYTE Assay)) EUB0001632a SGK2; conditions: at 10 µM
# T3 sequence (whole entry): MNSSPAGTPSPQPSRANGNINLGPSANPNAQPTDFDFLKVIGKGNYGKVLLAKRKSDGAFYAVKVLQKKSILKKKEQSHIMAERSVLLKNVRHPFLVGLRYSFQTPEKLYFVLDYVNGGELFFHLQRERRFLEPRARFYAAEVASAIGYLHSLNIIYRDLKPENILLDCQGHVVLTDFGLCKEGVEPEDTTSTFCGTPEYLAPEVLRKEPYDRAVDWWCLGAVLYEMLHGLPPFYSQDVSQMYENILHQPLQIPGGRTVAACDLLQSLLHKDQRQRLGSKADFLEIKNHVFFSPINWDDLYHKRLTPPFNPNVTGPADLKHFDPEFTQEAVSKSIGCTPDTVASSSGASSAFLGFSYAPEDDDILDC
# Chain of Cyclin-dependent kinase 8 (P49336 whole entry): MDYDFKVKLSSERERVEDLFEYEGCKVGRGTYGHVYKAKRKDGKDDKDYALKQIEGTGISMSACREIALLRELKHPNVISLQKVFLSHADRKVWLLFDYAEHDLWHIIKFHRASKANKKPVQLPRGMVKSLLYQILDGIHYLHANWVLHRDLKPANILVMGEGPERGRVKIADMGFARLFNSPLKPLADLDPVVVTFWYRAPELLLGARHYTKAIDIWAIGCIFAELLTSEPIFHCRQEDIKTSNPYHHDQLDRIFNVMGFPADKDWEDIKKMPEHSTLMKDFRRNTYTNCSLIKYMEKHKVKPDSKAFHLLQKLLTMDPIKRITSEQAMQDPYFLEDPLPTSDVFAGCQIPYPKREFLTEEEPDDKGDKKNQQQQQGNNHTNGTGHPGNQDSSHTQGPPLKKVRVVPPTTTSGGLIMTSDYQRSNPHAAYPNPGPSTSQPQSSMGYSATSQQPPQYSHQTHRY
# Chain of RAC-beta serine/threonine-protein kinase (Homo sapiens) (P31751 whole entry): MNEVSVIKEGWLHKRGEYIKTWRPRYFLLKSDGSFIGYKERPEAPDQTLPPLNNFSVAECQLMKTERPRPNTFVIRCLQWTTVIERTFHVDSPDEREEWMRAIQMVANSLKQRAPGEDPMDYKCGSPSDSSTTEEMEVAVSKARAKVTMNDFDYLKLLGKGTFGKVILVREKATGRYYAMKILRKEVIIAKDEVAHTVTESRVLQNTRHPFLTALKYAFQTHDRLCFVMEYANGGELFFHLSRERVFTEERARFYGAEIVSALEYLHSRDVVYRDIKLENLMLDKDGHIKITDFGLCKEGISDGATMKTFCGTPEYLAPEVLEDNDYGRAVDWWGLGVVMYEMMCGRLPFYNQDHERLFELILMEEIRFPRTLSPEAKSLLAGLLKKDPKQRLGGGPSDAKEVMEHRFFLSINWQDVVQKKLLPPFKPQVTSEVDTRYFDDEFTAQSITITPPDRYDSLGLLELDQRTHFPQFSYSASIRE
# Chain of Mast/stem cell growth factor receptor Kit (P10721 whole entry): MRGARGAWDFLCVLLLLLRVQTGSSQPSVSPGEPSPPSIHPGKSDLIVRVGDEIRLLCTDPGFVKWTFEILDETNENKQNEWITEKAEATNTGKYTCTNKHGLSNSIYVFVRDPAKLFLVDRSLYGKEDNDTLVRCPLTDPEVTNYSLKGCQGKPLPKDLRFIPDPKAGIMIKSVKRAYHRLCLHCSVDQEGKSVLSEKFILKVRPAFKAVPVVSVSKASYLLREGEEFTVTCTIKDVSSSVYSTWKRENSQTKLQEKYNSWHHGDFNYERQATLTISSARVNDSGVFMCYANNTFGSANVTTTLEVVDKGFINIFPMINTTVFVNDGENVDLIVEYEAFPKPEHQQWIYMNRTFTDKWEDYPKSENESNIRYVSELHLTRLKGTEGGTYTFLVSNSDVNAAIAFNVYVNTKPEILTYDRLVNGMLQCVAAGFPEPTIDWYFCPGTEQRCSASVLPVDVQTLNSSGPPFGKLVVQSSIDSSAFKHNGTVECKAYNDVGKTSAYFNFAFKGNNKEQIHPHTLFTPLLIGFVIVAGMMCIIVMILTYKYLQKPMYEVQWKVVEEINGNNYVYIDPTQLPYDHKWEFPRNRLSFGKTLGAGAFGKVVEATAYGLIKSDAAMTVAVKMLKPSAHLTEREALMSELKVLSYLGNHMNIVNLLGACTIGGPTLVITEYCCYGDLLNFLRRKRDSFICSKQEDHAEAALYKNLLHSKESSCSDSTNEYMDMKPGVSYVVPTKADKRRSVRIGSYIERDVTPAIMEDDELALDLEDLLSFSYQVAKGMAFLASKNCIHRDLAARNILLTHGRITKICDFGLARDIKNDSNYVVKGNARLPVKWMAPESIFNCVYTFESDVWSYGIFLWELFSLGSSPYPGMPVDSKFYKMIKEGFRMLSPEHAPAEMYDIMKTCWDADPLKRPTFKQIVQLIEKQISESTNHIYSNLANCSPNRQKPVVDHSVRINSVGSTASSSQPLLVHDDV
# Chain of Serine/threonine-protein kinase PAK 4 (O96013 whole entry, looked up): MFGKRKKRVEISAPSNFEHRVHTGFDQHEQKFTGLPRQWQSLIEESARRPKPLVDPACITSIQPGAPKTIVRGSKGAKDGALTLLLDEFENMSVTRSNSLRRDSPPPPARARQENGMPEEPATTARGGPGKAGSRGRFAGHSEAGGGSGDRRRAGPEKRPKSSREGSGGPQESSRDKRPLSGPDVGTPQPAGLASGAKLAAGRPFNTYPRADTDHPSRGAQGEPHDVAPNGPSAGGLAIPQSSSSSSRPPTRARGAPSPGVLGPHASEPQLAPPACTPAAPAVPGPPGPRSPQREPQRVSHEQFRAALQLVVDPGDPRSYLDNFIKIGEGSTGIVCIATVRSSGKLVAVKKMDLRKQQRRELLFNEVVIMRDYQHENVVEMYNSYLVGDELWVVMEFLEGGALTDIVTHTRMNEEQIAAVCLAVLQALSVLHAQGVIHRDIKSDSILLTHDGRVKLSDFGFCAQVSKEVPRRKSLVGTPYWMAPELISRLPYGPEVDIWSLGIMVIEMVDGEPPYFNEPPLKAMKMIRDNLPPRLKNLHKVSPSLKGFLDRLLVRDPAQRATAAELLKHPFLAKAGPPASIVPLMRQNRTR
# Chain of STE20-like serine/threonine-protein kinase (Q9H2G2 whole entry): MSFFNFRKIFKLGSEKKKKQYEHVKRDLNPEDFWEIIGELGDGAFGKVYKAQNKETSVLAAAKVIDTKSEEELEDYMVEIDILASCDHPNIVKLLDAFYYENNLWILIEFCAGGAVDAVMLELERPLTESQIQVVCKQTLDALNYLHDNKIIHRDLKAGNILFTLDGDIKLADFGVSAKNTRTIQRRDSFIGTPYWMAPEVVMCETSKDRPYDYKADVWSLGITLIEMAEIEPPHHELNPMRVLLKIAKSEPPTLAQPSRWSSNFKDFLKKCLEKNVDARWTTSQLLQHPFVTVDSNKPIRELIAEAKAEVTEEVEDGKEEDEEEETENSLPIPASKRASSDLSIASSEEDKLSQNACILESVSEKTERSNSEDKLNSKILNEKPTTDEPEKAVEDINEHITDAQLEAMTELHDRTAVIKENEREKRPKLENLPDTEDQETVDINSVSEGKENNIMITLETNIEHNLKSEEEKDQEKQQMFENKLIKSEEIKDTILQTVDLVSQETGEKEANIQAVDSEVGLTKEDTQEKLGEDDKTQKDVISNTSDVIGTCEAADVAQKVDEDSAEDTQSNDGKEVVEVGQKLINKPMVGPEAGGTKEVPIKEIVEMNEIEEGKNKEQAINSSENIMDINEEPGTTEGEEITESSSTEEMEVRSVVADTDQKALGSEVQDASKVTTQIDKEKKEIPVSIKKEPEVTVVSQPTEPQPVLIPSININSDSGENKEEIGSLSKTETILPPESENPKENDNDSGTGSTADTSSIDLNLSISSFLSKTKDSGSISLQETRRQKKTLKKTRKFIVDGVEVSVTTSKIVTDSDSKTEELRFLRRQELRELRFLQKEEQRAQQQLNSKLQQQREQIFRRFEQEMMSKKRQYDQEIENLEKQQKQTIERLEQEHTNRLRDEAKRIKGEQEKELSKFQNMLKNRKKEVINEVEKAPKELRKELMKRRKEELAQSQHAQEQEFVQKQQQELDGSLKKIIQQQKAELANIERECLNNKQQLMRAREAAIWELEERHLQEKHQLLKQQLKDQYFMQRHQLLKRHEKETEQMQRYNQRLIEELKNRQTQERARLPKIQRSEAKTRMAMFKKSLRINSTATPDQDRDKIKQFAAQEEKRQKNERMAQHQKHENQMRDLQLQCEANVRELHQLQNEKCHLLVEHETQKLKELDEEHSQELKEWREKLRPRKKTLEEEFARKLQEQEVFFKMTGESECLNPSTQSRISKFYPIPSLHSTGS
# Chain of Cyclin-dependent kinase 4 (P11802 whole entry): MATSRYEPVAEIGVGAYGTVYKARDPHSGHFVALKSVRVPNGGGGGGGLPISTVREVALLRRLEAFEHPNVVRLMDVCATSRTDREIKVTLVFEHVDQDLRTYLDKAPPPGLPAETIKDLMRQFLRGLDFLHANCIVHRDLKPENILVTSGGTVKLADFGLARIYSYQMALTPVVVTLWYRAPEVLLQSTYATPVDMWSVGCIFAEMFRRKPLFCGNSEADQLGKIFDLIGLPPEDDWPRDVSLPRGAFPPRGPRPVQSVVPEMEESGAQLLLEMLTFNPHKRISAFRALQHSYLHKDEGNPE
# Chain of Tyrosine-protein kinase Fyn (Homo sapiens) (P06241 2-537 limits assumed): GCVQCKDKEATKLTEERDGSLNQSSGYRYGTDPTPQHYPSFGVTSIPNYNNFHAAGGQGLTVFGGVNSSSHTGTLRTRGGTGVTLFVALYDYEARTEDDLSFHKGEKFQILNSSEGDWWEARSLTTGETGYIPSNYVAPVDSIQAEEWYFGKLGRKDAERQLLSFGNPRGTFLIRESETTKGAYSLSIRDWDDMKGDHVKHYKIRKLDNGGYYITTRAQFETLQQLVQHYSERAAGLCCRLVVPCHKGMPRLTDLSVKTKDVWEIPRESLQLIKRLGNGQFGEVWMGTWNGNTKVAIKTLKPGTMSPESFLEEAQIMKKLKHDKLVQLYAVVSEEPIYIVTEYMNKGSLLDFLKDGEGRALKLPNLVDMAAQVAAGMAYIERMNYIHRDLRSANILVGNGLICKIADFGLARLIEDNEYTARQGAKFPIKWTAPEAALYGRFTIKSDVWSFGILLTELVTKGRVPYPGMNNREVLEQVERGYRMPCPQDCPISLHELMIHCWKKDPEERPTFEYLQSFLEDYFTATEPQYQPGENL
compound,measurement,setting,value
COc1cc(N(C)c2ccnc3ccc(C(F)(F)F)cc23)cc(OC)c1OC,Kd,[1],> 10 µM
Nc1cnc(N2CCc3cc(S(=O)(=O)Nc4c(F)cc(Cl)cc4F)cc(N4CCCC4=O)c32)nc1 [TP-020n],% of control,[2],97%
same,% of control,[3],100%
CC[C@@H]1[C@H](F)C(=O)N[C@@H]1COc1nccc2cc(C(N)=O)c(OC)cc12 [ZIMLOVISERTIB],% of inhibition,[4]; at 0.01 µM,10.4%
same,% of inhibition,[4]; at 0.04 µM,-11.1%
same,% of inhibition,[4]; at 0.2 µM,2.6%
same,% of inhibition,[4]; at 1 µM,7.8%
same,% of inhibition,[4]; at 5 µM,18.7%
same,% of inhibition,[5]; at 0.01 µM,0.3%
same,% of inhibition,[5]; at 0.04 µM,-3.6%
same,% of inhibition,[5]; at 0.2 µM,-11.2%
same,% of inhibition,[5]; at 1 µM,7.7%
same,% of inhibition,[5]; at 5 µM,0.4%
COCC(=O)NC/C=C/c1ccc2ncnc(Nc3ccc(Oc4ccc(C)nc4)c(C)c3)c2c1 [CP-724714],% of control,[6],87%
CCC(=O)N1CCN(c2ccc(-n3c(=O)ccc4cnc5ccc(-c6cnc7ccccc7c6)cc5c43)cc2C(F)(F)F)CC1,% of control,[7],49%
N#Cc1cccc(-c2c[nH]c3ncnc(N4CCOCC4)c23)c1,% of control,[8],100%
same,% of inhibition,[9],7%
Cn1cc(-n2cnc3c(NCc4nc5cc(Cl)c(Cl)cc5[nH]4)nc(N4CCOCC4)nc32)cn1,% of inhibition,[10],-13.5%
same,% of control,[11],8.85%
